Measured values taken from patent US20050075345A1, “Novel inhibitor compounds specific of secreted non-pancreatic human a2phospholipase of group II” (Yang Ji Chemical Company Ltd., priority 2001, published 2005).

Experiments:
[1] = molecular target: T1, porcine pancreatic PLA2 (group I) (Sus scrofa, UniProt P00592); assay: Fluorometric anti-PLA2 assay, porcine pancreatic PLA2 (group I); format: biochemical; conditions: measured for fluorescence with porcine pancreatic PLA2 (group I); read-out: Anti-PLA2 activity IC50 PPLA2
Description: (§1) Phospholipase A2 hydrolyzes an ester linkage at the sn-2 position of glycerophospholipid and liberates fatty acids and lysophospholipids. The in vitro action of particular compounds was evaluated by the analysis of fatty acids according to the fluorometric method described in Radvanyi et al., Anal. Biochem. 1989, 177. 103-109, and by the analysis of lysophospholipids according to the UV spectrophotometric method described in Reynolds et al., Anal. Biochem. 1992, 204, 190-197.
(§2) Enzymes used were two secretory enzymes of group II (human recombinant PLA2, and PLA2 basic subunit isolated from Crotalus durissus terrificus), and a secretory enzyme of porcine pancreatic (group I) PLA2.
(§3) Regarding substrates, palmitoyl-2-(10-pyrenyl decanoyl)-sn-glycero-3-phosphatidylglycerolic acid as a fluorescent substrate was used in the fluorometric method, and the lithium salt of 1,2-bis-(dihexanylthio)-dideoxy-rac-glycero-3-phosphorylglycerol was used in the UV spectrophotometric method.
(§4) The fluorometric analysis was performed using a Perkin Elmer LS50 luminescence spectrometer in a unit dosage polystyrene cell having a size of 1 cm. The exact concentration of the fluorescent substrate was determined by UV Unicam spectrometry in a quartz cell.
(§5) PLA2 is an enzyme that hydrolyzes an ester linkage at the sn-2 position of phospholipid. […] After hydrolysis with the enzyme, fluorescence emitted by the liberated fatty acid (pyrenyl decanoic acid) complex with bovine serum albumin (BSA) is increased, and strong fluorescence emission is observed at 378 and 398 nm. The principle of the analysis is to measure a difference in fluorescence at 398 nm in order to examine the production of fatty acids liberated for a given period of time, thus determining the PLA2 activity.
(§6) Measurement of the enzymatic activity was performed in a cell containing: 960 μl of Tris buffer; 50 mM HCl (pH 7.5); 0.5 M NaCl, 1 mM EGTA; and 1 μl substrate. This mixture was stirred under reflux for one minute to permit the formation of vesicles of substrate, and then, 10 μl of 10% SAB, 10 μl of solvent (ethanol or DMSO) or inhibitor solution, 10 μl of PLA2 to a given concentration and finally 10 μl of 1 M calcium chloride (CaCl2) for initiating the activity were successively added to the mixture under stirring.
(§7) Good conditions of measurement of the enzymatic activity include saturation of the enzyme, and thus, initial concentrations used are as follows: (i) human recombinant PLA2: 0.1 μl/ml; (ii) porcine pancreatic PLA2: 0.6 μl/ml; and (iii) Crotalus durissus terrificus (CB) PLA2: 0.05 μl/ml. Mother solution containing the inhibitor was prepared at an initial concentration of 10^−2 M.
(§8) The enzymatic activity is shown by a curve of which the original slope permits to calculate the initial velocity of the reaction. The following equation permits to calculate the enzymatic activity (A; μmol) of fatty acids liberated per minute. In the equation, S0 represents the slope of a curve in the absence of calcium (control), S the slope in the presence of calcium, V the volume (μl) of the substrate solution, and Fmax the signal of maximum fluorescence obtained at the end of the enzymatic reaction: [formula]
(§9) The residual activity in the presence of an inhibitor was evaluated by slopes obtained in the absence and presence of an inhibitor, according to the following equation: Residual activity (%)=(S−S0) in the presence of inhibitor/(S−S0) in the absence of inhibitor
(§10) Values obtained as a logarithmic function of the inhibitor concentrations used permit to determine the IC50 value, i.e., the inhibitor concentration required to cause 50% reduction of the enzymatic activity. The lower the IC50 value, the higher the inhibitory activity of a compound tested.

[2] = molecular target: T2, human recombinant PLA2 (group II) (Homo sapiens, UniProt P14555); assay: Fluorometric anti-PLA2 assay, human recombinant PLA2 (group II); format: biochemical; conditions: measured for fluorescence with human recombinant PLA2 (group II); read-out: Anti-PLA2 activity IC50 HPLA2
T2 sequence (P14555 21-144): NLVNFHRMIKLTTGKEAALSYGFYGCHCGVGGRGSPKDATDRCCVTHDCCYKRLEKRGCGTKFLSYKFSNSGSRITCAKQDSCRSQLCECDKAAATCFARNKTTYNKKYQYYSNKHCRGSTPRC
Description: as §1, §2, §3, §4, §5, §6, §7, §8, §9, §10

[3] = system: ear edema induced by croton oil; assay: Croton oil-induced ear edema test, local anti-inflammatory effect; format: in vivo, male ICR mice; conditions: mice, topical, 5 hours
Description: A-2: As animals, male ICR mice weighing 25 g were used.
A-4: To evaluate the in vivo anti-inflammatory effect of the inventive PMS compounds as listed above, the ear edema test was used as an acute inflammatory experimental model.
After inducing edema on one ear of mice by the application of croton oil, the sample of each of the PMS compounds as described above was dissolved in 80% chloroform. […] The other ear was applied only with the solvent, i.e., 80% chloroform.
After 5 hours of the initiation of the experiment, the ear tissue at the level of edema was collected by a gimlet from the skin, and the tissue collected was compared with one collected from the control part of the ear by a gimlet, to calculate the percent inhibition.
A-5: To calculate the statistical significance, the results obtained in each of the […] and the […] were evaluated by Student's t-test.

[4] = molecular target: T1, porcine pancreatic PLA2 (group I); assay: UV spectrophotometric anti-PLA2 assay, porcine pancreatic PLA2 (group I); format: biochemical; conditions: UV spectrophotometric method, read-out: Anti-PLA2 activity IC50 PPLA2 spectro
Description: as §1, §2, §3
The UV spectrophotometric analysis was performed on an ELx 808 Ultra Micro Plate Reader apparatus (96-well plate). […]
(§11) Good conditions of measurement include saturation of enzyme. […] It calculated directly the initial velocity of the reaction. […]
(§12) 15 readings for each well (3 wells per concentration) were performed at intervals of 3 seconds.

[5] = system: PLA2 of Crotalus durissus terrificus (group II); assay: UV spectrophotometric anti-PLA2 assay, Crotalus durissus terrificus PLA2 (CB); format: biochemical; conditions: UV spectrophotometric method, read-out: Anti-PLA2 activity IC50 CB Spectro
Description: as §1, §2, §3
The UV spectrophotometric analysis was performed on an ELx 808 Ultra Micro Plate Reader apparatus (96-well plate).
Lysothiophospholipid (LTPL) liberated by the lypolytic action of PLA2 in the presence of calcium reacts with dithionitrobenzoic acid (DTNB) present in medium to form an LTPL-TNB complex and an TNB-anion which induces the yellowing of reaction medium.
The measurement of enzymatic activity is performed in a multiple well plate of which each well contains 190 μl of 1× buffer, 2 μl of 10 mM DTNB, […] of 20 mM substrate, 2 μl of solvent or inhibitor solution, and 2 μl of PLA2 at a given concentration. The plate was stirred and 2 μl of 1 M calcium chloride was added to initiate the enzymatic reaction. Substrate was used at a lower concentration than micellar critical concentration (about 1 mM) in a monomeric form, and the ratio of substrate to enzyme was respected. […]
as §11, §12

[6] = system: PLA2 of Crotalus durissus terrificus (group II); assay: Fluorometric anti-PLA2 assay, Crotalus durissus terrificus PLA2 (CB); format: biochemical; conditions: fluorometric method, read-out: Anti-PLA2 activity IC50 CB Fluo
Description: as §1, §2, §3, §4
as §5, with “activity. […]” for “activity.”
The residual activity in the presence of an inhibitor was evaluated by slopes obtained in the absence and presence of an inhibitor, according to the following equation: Residual activity (%)=(S−S0) in the presence of inhibitor/(S−S0) in the absence of inhibitor […]

[7] = system: carrageenan-induced edema; assay: Carrageenan-induced edema test in rats; format: in vivo; conditions: dose of 10 mg/kg
Description: An in vivo activity assay was performed by a carrageenan-induced edema test in rats.
In the experimental protocol conducted, indomethacin as the reference product, or the compound No. 5, was administered intraperitoneally or orally at one hour before the injection of carrageenan into the hind leg of the rats. The volume of edema was measured at 0, 3 and 5 hours after the injection of carrageenan. The doses used were 5, 10 and 20 mg/kg for the two products tested.

T1 sequence (P00592 23-146): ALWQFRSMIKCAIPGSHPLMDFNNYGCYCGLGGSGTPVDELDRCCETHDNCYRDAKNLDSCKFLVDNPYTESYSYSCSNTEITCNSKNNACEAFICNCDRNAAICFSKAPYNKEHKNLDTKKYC

Compound	IC50 [1]	IC50 [2]	also measured
CCCCCCCCCCCCCCN1CCN(C(=O)c2ccc(CCCc3noc(=O)[nH]3)cc2)CC1 [Example 9, 1-[4′-(4,5-dihydro-1,2,4(4H)-5-oxo-oxadiazol-3-ylpropyl)benzoyl]-4-tetradecylpiperazine]	> 100000 nM	5300 nM	
CCCCCCCCCCCCCCN1CCN(C(=O)c2ccc(Cc3noc(=O)[nH]3)cc2)CC1 [Example 8, 1-[4′-(4,5-dihydro-1,2,4(4H)-5-oxo-oxadiazol-3-ylmethyl)benzoyl]-4-tetradecylpiperazine]	> 100000 nM	18700 nM	
CCCCCCCCCCCCCCCCCCN1CCN(c2ccc(Cc3noc(=O)[nH]3)cc2)CC1 [Compound 10, 1-[4′-(4,5-dihydro-1,2,4(4H)-5-oxo-oxadiazol-3-ylmethyl)phenyl]-4-octadecylpiperazine]	> 100000 nM	2710 nM	
1-[4′-(4,5-dihydro-1,2,4(4H)-5-oxo-oxadiazol-3-ylmethyl)benzyl]-4-tetradecylpiperazine [Compound 2]		> 10000 nM	Edema inhibition (%) ([3]; 1 mg/ear, listed as PMS 1227): 51.45 ± 11.67%
CCCCCCCCCCCCN1CC(C)N(C(=O)c2ccc(Cc3noc(=O)[nH]3)cc2)CC1C (centres unmarked) [Compound 13, 1-[4′-(4,5-dihydro-1,2,4(4H)-5-oxo-oxadiazol-3-ylmethyl)benzoyl]-2,5-dimethyl-4-dodecylpiperazine]	> 100000 nM		Edema inhibition (%) ([3]; 1 mg/ear): 62.79 ± 3.23%
CCCCCCCCCCCCCCN1CCN(Cc2ccc(Cc3noc(=O)[nH]3)cc2)C(=O)C1 [Example 7, 1-[4′-(4,5-dihydro-1,2,4(4H)-5-oxo-oxadiazol-3-ylmethyl)benzyl]-4-tetradecylpiperazin-2-one]	> 100000 nM	30000 nM	
CCCCCCCCCCCCCCCCCCN1CCN(C(=O)c2ccc(C=C3SC(=O)NC3=O)cc2)CC1 [Compound 14, [4-(4′-octadecylpiperazine-1′-ylcarbonyl)benzylidene]-1,3-thiazolidine-2,4-dione]	10000 nM	280 nM	IC50 [4]: > 100000 nM; IC50 [5]: 400 nM; IC50 [6]: 400 nM
CCCCCCCCCCCCCCCCCCN1CCN(C(=O)c2ccc(CC3SC(=O)NC3=O)cc2)CC1 (centres unmarked) [Compound 15, 1-[4′-(2,4-dioxo-1,3-thiazolidin-5-ylmethyl)benzoyl]-4-octadecylpiperazine]	> 100000 nM	1000 nM	IC50 [5]: 2000 nM; IC50 [6]: 1400 nM
CCCCCCCCCCCCCCCCCCN1CCN(C(=O)c2ccc(Cc3noc(=O)[nH]3)cc2)CC1 [Compound 6, 1-[4′-(4,5-dihydro-1,2,4(4H)-5-oxo-oxadiazol-3-ylmethyl)benzoyl]-4-octadecylpiperazine]		800 nM	IC50 [5]: 2000 nM; IC50 [6]: 1500 nM
1-[4′-(4,5-dihydro-1,2,4(4H)-5-oxo-oxadiazol-3-ylmethyl)benzyl]-4-tetradecylpiperazine [PMS 1281]			Edema inhibition (%) ([3]; 1 mg/ear): 47.83 ± 12.34%
1-[4′-(4,5-dihydro-1,2,4(4H)-5-oxo-oxadiazol-3-ylmethyl)benzoyl]-4-dodecylpiperazine [PMS 1314]			Edema inhibition (%) ([3]; 1 mg/ear): 28.5 ± 6.85%
COc1ccc2c(c1)c(CC(=O)O)c(C)n2C(=O)c1ccc(Cl)cc1 [Indomethacin, indomethacin]			Edema inhibition (%) ([3]; 0.5 mg/ear): 43.11 ± 8.79%; inhibition of edema ([7]; intraperitoneal route, given one hour before carrageenan): 79%; inhibition of edema ([7]; oral route, at 5 hours after the injection of carrageenan): 16%
